Source: patent US10463644B2, “Uses of sesquiterpene lactone compounds and their derivatives in drugs preparation” (ACCENDATECH, priority 2013, dated 2019)
Where two headings read alike, the source gives them in different places.

How the values were obtained:
[1] = system: cancer cells; assay: Survival rate of cancer cells after test compound is added (flow cytometry, Annexin V-FITC/PI, clinical specimen); assay type: cell-based, patient; details: Homo sapiens, 18 h, read-out: Survival rate (%) All cells (Stem cells and ordinary cells)
Summary of the method: (§1)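 Patient specimens (e.g. AML, CD34+/CD38+ stem-cell marker) separated on Ficoll; mononuclear cells at 1×10^6/mL in serum-free IMDM treated 18 h with compound. Cells stained for stem-cell markers, then Annexin V-FITC/PI, and apoptosis measured by flow cytometry within one hour.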

[2] = system: cancer stem cells; assay: Survival rate of cancer stem cells after test compound is added (flow cytometry, Annexin V-FITC/PI, clinical specimen); assay type: cell-based, patient; details: Homo sapiens, 18 h
Summary of the method: as §1

[3] = system: PGE2 secreted by synoviocyte; assay: Content of PGE2 in culture supernatant of synoviocyte of RA model rats given test compound; assay type: in vivo; details: rat RA model, dose 30 mg/kg.2d; normal control 8.34 ± 1.29, NaCl 32.44 ± 10.32
Summary of the method: (§2)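 Animals with induced RA are grouped and dosed with compound (30 mg/kg.2d) alongside NaCl and normal controls. Synoviocytes are prepared and cultured, and supernatants are harvested. TNF-α and PGE2 secretion are then quantified by one procedure, IL-1β by another.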

[4] = system: IL-1β secreted by synoviocyte; assay: Content of IL-1β in culture supernatant of synoviocyte of RA model rats given test compound; assay type: in vivo; details: rat RA model, dose 30 mg/kg.2d; normal control 0.16 ± 0.034, NaCl 0.49 ± 0.136
Summary of the method: as §2

[5] = system: normal cells; assay: Survival rate of normal cells after test compound is added (flow cytometry, Annexin V-FITC/PI); assay type: cell-based; details: 18 h
Summary of the method: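 Steps: density-gradient isolation of mononuclear cells from fresh or cryopreserved clinical samples; 18-hour compound exposure at 1×10^6 cells/mL; staining for stem-cell surface markers, then Annexin V-FITC and PI; flow cytometric apoptosis analysis.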

[6] = Head and neck squamous cell carcinomas
[7] = read-out: Survival rate (%) All cells (Stem cells and ordinary cells)
[8] = read-out: Survival rate (%) Stem cells

C=C1C(=O)O[C@@H]2[C@@H]3[C@@H](CC[C@@]3(C)O)[C@](C)(O)CC[C@@H]12 [Compound 49]
viability at 10 µM ([1]; AML): 92% | viability at 20 µM ([1]; AML): 89% | viability at 10 µM ([1]; Brain glioma): 88% | viability at 20 µM ([1]; Brain glioma): 87% | viability at 10 µM ([1]; Brain tumor): 88% | viability at 20 µM ([1]; Brain tumor): 87% | viability at 10 µM ([1]; Breast cancer): 89% | viability at 20 µM ([1]; Breast cancer): 87% | viability at 10 µM ([1]; CLL): 91% | viability at 20 µM ([1]; CLL): 85% | viability at 10 µM ([1]; CML): 90% | viability at 20 µM ([1]; CML): 86% | viability at 10 µM ([1]; Children hepatoblastoma): 93% | viability at 20 µM ([1]; Children hepatoblastoma): 92% | viability at 10 µM ([1]; Colon adenocarcinoma): 93% | viability at 20 µM ([1]; Colon adenocarcinoma): 86% | viability at 10 µM ([1]; Colorectal cancer): 88% | viability at 20 µM ([1]; Colorectal cancer): 85% | viability at 10 µM ([1]; Gastric cancer): 92% | viability at 20 µM ([1]; Gastric cancer): 89% | viability at 10 µM ([1]; Gastrointestinal tumor): 92% | viability at 20 µM ([1]; Gastrointestinal tumor): 89% | viability at 10 µM ([1]; Glioma): 88% | viability at 20 µM ([1]; Glioma): 89% | viability at 10 µM [1, 6]: 91% | viability at 20 µM [1, 6]: 87% | viability at 10 µM ([1]; Laryngeal cancer): 91% | viability at 20 µM ([1]; Laryngeal cancer): 88% | viability at 10 µM ([1]; Liver cancer): 93% | viability at 20 µM ([1]; Liver cancer): 86% | viability at 10 µM ([1]; Lung adenocarcinoma): 91% | viability at 20 µM ([1]; Lung adenocarcinoma): 88% | viability at 10 µM ([1]; Lung cancer): 88% | viability at 20 µM ([1]; Lung cancer): 82% | viability at 10 µM ([1]; Malignant melanoma): 88% | viability at 20 µM ([1]; Malignant melanoma): 87% | viability at 10 µM ([1]; Nasopharynx cancer): 93% | viability at 20 µM ([1]; Nasopharynx cancer): 86% | viability at 10 µM ([1]; Ovarian cancer): 93% | viability at 20 µM ([1]; Ovarian cancer): 88% | viability at 10 µM ([1]; Pancreatic cancer): 87% | viability at 20 µM ([1]; Pancreatic cancer): 83% | viability at 10 µM ([1]; Prostate cancer): 92% | viability at 20 µM ([1]; Prostate cancer): 89% | viability at 10 µM ([1]; Retinoblastoma): 92% | viability at 20 µM ([1]; Retinoblastoma): 89% | viability at 10 µM ([1]; Skin cancer): 93% | viability at 20 µM ([1]; Skin cancer): 86% | viability at 10 µM ([2]; AML): 85% | viability at 20 µM ([2]; AML): 77% | viability at 10 µM ([2]; Brain glioma): 83% | viability at 20 µM ([2]; Brain glioma): 79% | viability at 10 µM ([2]; Brain tumor): 83% | viability at 20 µM ([2]; Brain tumor): 79% | viability at 10 µM ([2]; Breast cancer): 82% | viability at 20 µM ([2]; Breast cancer): 79% | viability at 10 µM ([2]; CLL): 82% | viability at 20 µM ([2]; CLL): 74% | viability at 10 µM ([2]; CML): 87% | viability at 20 µM ([2]; CML): 76% | viability at 10 µM ([2]; Children hepatoblastoma): 86% | viability at 20 µM ([2]; Children hepatoblastoma): 78% | viability at 10 µM ([2]; Colon adenocarcinoma): 85% | viability at 20 µM ([2]; Colon adenocarcinoma): 79% | viability at 10 µM ([2]; Colorectal cancer): 82% | viability at 20 µM ([2]; Colorectal cancer): 74% | viability at 10 µM ([2]; Gastric cancer): 85% | viability at 20 µM ([2]; Gastric cancer): 77% | viability at 10 µM ([2]; Gastrointestinal tumor): 85% | viability at 20 µM ([2]; Gastrointestinal tumor): 77% | viability at 10 µM ([2]; Glioma): 82% | viability at 20 µM ([2]; Glioma): 76% | viability at 10 µM [2, 6]: 82% | viability at 20 µM [2, 6]: 73% | viability at 10 µM ([2]; Laryngeal cancer): 84% | viability at 20 µM ([2]; Laryngeal cancer): 78% | viability at 10 µM ([2]; Liver cancer): 85% | viability at 20 µM ([2]; Liver cancer): 79% | viability at 10 µM ([2]; Lung adenocarcinoma): 84% | viability at 20 µM ([2]; Lung adenocarcinoma): 78% | viability at 10 µM ([2]; Lung cancer): 79% | viability at 20 µM ([2]; Lung cancer): 73% | viability at 10 µM ([2]; Malignant melanoma): 82% | viability at 20 µM ([2]; Malignant melanoma): 79% | viability at 10 µM ([2]; Nasopharynx cancer): 84% | viability at 20 µM ([2]; Nasopharynx cancer): 77% | viability at 10 µM ([2]; Ovarian cancer): 86% | viability at 20 µM ([2]; Ovarian cancer): 76% | viability at 10 µM ([2]; Pancreatic cancer): 81% | viability at 20 µM ([2]; Pancreatic cancer): 75% | viability at 10 µM ([2]; Prostate cancer): 85% | viability at 20 µM ([2]; Prostate cancer): 77% | viability at 10 µM ([2]; Retinoblastoma): 85% | viability at 20 µM ([2]; Retinoblastoma): 77% | viability at 10 µM ([2]; Skin cancer): 85% | viability at 20 µM ([2]; Skin cancer): 79% | Content of PGE2 in culture supernatant of synoviocyte (x ± s) [3]: 24.25 ± 1.94 ng/mL | Content of IL-1β in culture supernatant of synoviocyte (x ± s) [4]: 0.39 ± 0.075 ng/mL | viability at 10 µM [5, 7]: 96% | viability at 10 µM [5, 8]: 94% | viability at 20 µM [5, 7]: 95% | viability at 20 µM [5, 8]: 92%
